From patent US20120059162A1, “FUSED IMIDAZOLE DERIVATIVE HAVING TTK INHIBITORY ACTION” (Oncotherapy Science, Inc., priority 2009, published 2012)

Columns and labels:
TTK = molecular target: T1, TTK (Homo sapiens, UniProt P33981); assay: TTK assay: screening of TTK kinase activity suppressing action using p38 MAPK peptide; type: biochemical; conditions: p38 MAPK peptide substrate; read-out: TTK IC50
T1 sequence (P33981 1-857): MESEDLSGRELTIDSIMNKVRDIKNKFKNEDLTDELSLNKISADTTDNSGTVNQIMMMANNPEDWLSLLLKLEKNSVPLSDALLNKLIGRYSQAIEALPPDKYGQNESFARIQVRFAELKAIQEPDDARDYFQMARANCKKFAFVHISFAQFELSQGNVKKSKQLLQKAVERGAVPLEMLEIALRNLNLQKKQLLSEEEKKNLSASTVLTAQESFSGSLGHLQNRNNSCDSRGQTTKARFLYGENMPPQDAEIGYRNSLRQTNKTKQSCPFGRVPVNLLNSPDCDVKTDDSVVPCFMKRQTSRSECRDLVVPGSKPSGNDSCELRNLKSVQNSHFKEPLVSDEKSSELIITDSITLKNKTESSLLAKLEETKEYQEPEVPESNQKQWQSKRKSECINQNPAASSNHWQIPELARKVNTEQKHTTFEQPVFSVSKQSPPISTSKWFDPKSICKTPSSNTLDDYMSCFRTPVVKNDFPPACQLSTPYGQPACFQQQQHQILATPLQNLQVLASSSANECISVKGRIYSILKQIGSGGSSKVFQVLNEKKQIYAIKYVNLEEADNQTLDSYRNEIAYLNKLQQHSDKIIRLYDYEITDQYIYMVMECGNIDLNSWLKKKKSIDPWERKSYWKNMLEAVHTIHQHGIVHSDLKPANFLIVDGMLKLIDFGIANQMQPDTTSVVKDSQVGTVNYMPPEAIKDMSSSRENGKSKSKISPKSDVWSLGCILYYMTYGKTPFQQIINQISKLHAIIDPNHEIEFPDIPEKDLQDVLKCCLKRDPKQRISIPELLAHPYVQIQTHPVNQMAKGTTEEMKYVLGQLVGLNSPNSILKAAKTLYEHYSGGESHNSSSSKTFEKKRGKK
Experimental: Screening of a compound having a TTK kinase activity suppressing action using p38 MAPK peptide
A test substance 1.0 μL (solvent: 10% (v/v) DMSO), TTK solution 5 μL (composition: 4 μg/ml TTK, 25 mM Tris-HCl, pH7.5, 5 mM β-glycerophosphate, 2 mM DTT, 0.1 mM Na3VO4, 5 mM MgCl2, 0.1% (w/v)BSA) and a substrate solution 5 μL (composition: 60 μM p38 MAPK peptide, 60 μM ATP, 25 mM Tris-HCl, pH7.5, 5 mM β-glycerophosphate, 2 mM DTT, 0.1 mM Na3VO4, 5 mM MgCl2, 0.1% (w/v)BSA) were mixed in the wells of a 384-well microtiter plate (manufactured by Corning Incorporated) made of polypropylene and loaded in a constant temperature and humidity room.
From the resultant mixture, an aliquot of 1.7 μL was taken out and mixed with the reaction terminating solution (60 μl) in the wells of a 384-well microtiter plate (manufactured by Corning Incorporated) made of polypropylene. Thereafter, 40 μL of the mixture was transferred to a 384-well black NeutrAvidin plate (PIERCE), sealed and incubated under room temperature for 30 minutes. […] Similarly, the plate was washed with TTBS (100 μL) three times, 40 μl of a secondary antibody solution (Eu-N1 labeled Anti-mouse IgG (Perkin Elmer, #AD0124)) was added and incubated under room temperature for 30 minutes. After the plate was washed with TTBS (100 μL) five times, 40 μL of an enhance solution (Perkin Elmer) was added and incubated under room temperature for 5 minutes. […] Based on the fluorescence value in the absence of a test substance, the suppression activity of a test substance was measured.

A549 = A549 assay: screening of cancer cell growth inhibiting compound; type: cell-based; conditions: Homo sapiens, 72 h; A549 cells, three days, WST-8; read-out: A549 IC50
How it was run: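 A549 cells (1×10^4/ml) in D-MEM with 10% FBS were pre-incubated one day at 37 °C, then exposed to compound dilutions for three further days. Viable cell number read by WST-8 (1–4 hours), absorbance 450 nm (reference 620 nm); inhibition calculated relative to untreated wells.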

C#CC(CC)(CC)Nc1cc(NCC2CCOCC2)c2ncc(-c3ccc(C(=O)NC4CC4)cc3)n2n1 [Example 2-76]
IC50 (TTK): 18.9 nM | IC50 (A549): 500 to 1000 nM

C#CC1(Nc2cc(NCC3CCOCC3)c3ncc(-c4ccc(C(=O)NC5CC5)cc4)n3n2)CCCCC1 [Example 2-77]
IC50 (TTK): 21.3 nM | IC50 (A549): 500 to 1000 nM

CC(C)C(Nc1cc(NCC2CCOCC2)c2ncc(-c3ccc(C(=O)NC4CC4)cc3)n2n1)C(F)(F)F (stereo not drawn) [Example 2-78]
IC50 (TTK): 3.5 nM | IC50 (A549): ≤ 50 nM

CC1(Nc2cc(NCC3CCOCC3)c3ncc(-c4ccc(C(=O)NC5CC5)cc4)n3n2)CCOCC1 [Example 2-79]
IC50 (TTK): 5.9 nM | IC50 (A549): 50 to 500 nM

O=C(NC1CC1)c1ccc(-c2cnc3c(NCC4CCOCC4)cc(NC4CCCC(F)(F)C4)nn23)cc1 (stereo not drawn) [Example 2-80]
IC50 (TTK): 4 nM | IC50 (A549): ≤ 50 nM

CC(C)(C)CC(C)(C)Nc1cc(NCC2CCOCC2)c2ncc(-c3ccc(C(=O)NC4CC4)cc3)n2n1 [Example 2-81]
IC50 (TTK): 4 nM | IC50 (A549): ≤ 50 nM

CC(C)C(C)(C)Nc1cc(NCC2CCOCC2)c2ncc(-c3ccc(C(=O)NC4CC4)cc3)n2n1 [Example 2-82]
IC50 (TTK): 6 nM | IC50 (A549): ≤ 50 nM

O=C(NC1CC1)c1ccc(-c2cnc3c(NCC4CCOCC4)cc(NC4CCCOC4)nn23)cc1 (stereo not drawn) [Example 2-83]
IC50 (TTK): 5.2 nM | IC50 (A549): 50 to 500 nM

CC(Nc1cc(NCC2CCOCC2)c2ncc(-c3ccc(C(=O)NC4CC4)cc3)n2n1)c1cccs1 (stereo not drawn) [Example 2-84]
IC50 (TTK): 7.5 nM | IC50 (A549): 50 to 500 nM

C#CC(C)(C)Nc1cc(NCC2CCOCC2)c2ncc(-c3ccc(C(=O)NC4CC4)cc3)n2n1 [Example 2-85]
IC50 (TTK): 4 nM | IC50 (A549): 1000 to 10000 nM

CCC(C)Nc1cc(NCC2CCOCC2)c2ncc(-c3ccc(C(=O)NC4CC4)cc3)n2n1 (stereo not drawn) [Example 2-87, 4-(6-(sec-Butylamino)-8-((tetrahydro-2H-pyran-4-yl)methylamino)imidazo[1,2-b]pyridazin-3-yl)-N-cyclopropylbenzamide]
IC50 (TTK): 6.2 nM | IC50 (A549): 50 to 500 nM

O=C(NC1CC1)c1ccc(-c2cnc3c(OCC4CCOCC4)cc(NC4CCCCC4)nn23)cc1 [Example 2-89, 4-(6-(Cyclohexylamino)-8-((tetrahydro-2H-pyran-4-yl)methoxy)imidazo[1,2-b]pyridazin-3-yl)-N-cyclopropylbenzamide]
IC50 (TTK): 5 nM | IC50 (A549): 50 to 500 nM

O=C(NC1CC1)c1ccc(-c2cnc3c(NCC4CCOCC4)cc(Oc4ccccc4Cl)nn23)cc1 [Example 2-90, 4-(6-(2-Chlorophenoxy)-8-((tetrahydro-2H-pyran-4-yl)methylamino)imidazo[1,2-b]pyridazin-3-yl)-N-cyclopropylbenzamide]
IC50 (TTK): 2.7 nM | IC50 (A549): 50 to 500 nM

Nc1cccc(Oc2cc(NCC3CCOCC3)c3ncc(-c4ccc(C(=O)NC5CC5)cc4)n3n2)c1 [Example 2-91]
IC50 (TTK): 2.3 nM | IC50 (A549): ≤ 50 nM

Nc1ccc(Oc2cc(NCC3CCOCC3)c3ncc(-c4ccc(C(=O)NC5CC5)cc4)n3n2)cc1 [Example 2-92]
IC50 (TTK): 4 nM | IC50 (A549): 50 to 500 nM

O=C(NC1CC1)c1ccc(-c2cnc3c(NCC4CCOCC4)cc(Oc4ccc(Cl)cc4)nn23)cc1 [Example 2-93]
IC50 (TTK): 3.3 nM | IC50 (A549): 50 to 500 nM

COc1ccccc1Oc1cc(NCC2CCOCC2)c2ncc(-c3ccc(C(=O)NC4CC4)cc3)n2n1 [Example 2-95]
IC50 (TTK): 2.5 nM | IC50 (A549): 50 to 500 nM

O=C(NC1CC1)c1ccc(-c2cnc3c(NCC4CCOCC4)cc(Oc4ccccc4C(F)(F)F)nn23)cc1 [Example 2-96]
IC50 (TTK): 7.5 nM | IC50 (A549): 50 to 500 nM

Nc1ccccc1Oc1cc(NCC2CCOCC2)c2ncc(-c3ccc(C(=O)NC4CC4)cc3)n2n1 [Example 2-97]
IC50 (TTK): 3.3 nM | IC50 (A549): ≤ 50 nM

Nc1c(F)cccc1Oc1cc(NCC2CCOCC2)c2ncc(-c3ccc(C(=O)NC4CC4)cc3)n2n1 [Example 2-98]
IC50 (TTK): 2.4 nM | IC50 (A549): ≤ 50 nM

Cc1ccccc1Oc1cc(NCC2CCOCC2)c2ncc(-c3ccc(C(=O)NC4CC4)cc3)n2n1 [Example 2-101]
IC50 (TTK): 2.5 nM | IC50 (A549): 50 to 500 nM
